# US8334261B2, “Osteopenia animal model” (Oriental Yeast Co., Ltd., priority 2006, dated 2012)
# Key:
# [1] = system: 7-week-old female Fischer rats; test: Examination with Fischer rats; assay type: in vivo, rat
# Protocol: GST-RANKL was intraperitoneally administered 3 times to 7-week-old female Fischer rats at 1 mg/kg every 24 hours. The serum and femur were collected from each mouse 1.5 hours after the 3rd administration, followed by comparison with the PBS administration group. The serum of each mouse was subjected to measurement (with the use of an SB-TR102 kit, IDS Ltd.) of the Ca and TRAP-5b concentrations serving as bone resorption markers and the ALP concentration serving as an osteogenesis marker. Each femur was subjected to bone density measurement with pQCT and image analysis with micro CT.
# [2] = system: 7-week-old female C57BL/6N mice; test: Tibial bone morphology measurement after GST-RANKL 2 mg/kg; assay type: in vivo, mouse; conditions: 2 mg/kg i.p. 3 times
# Protocol: GST-RANKL was intraperitoneally administered 3 times to groups of 7-week-old female C57BL/6N mice at 2 mg/kg every 24 hours, followed by dissection. The tibia of each mouse was subjected to toluidine blue staining and morphology measurement. A solvent (PBS) was administered to the control group in the same manner as above. The GST-RANKL intraperitoneal administration group was subjected to tibial bone morphology measurement. The unit bone mass (BV/TV), the trabecular width (Tb.Th), and the trabecular number (Tb.N) decreased by approximately 30% (p<0.03), approximately 10% (P<0.03), and approximately 20% (p<0.05), respectively, compared with those for the control group (FIGS. 29 to 31). In addition, the osteoid thickness (O.Th), the eroded surface area (ES/BS), the osteoclast number (N.Oc/B.Pm), and the osteoclast surface area (Oc.S/BS) increased, respectively, to approximately 1.2-fold (p<0.04), approximately 1.8-fold (p<0.001), approximately 1.9-fold (p<0.001), and approximately 1.8-fold (p<0.001) as high as those for the control group (FIGS. 32 to 35). In addition, the sections obtained in this Example were subjected to TRAP staining. […] That is, the osteopenia mechanism induced by GST-RANKL administration involves promotion of bone resorption, but not reduction in osteogenesis. However, the aforementioned coupling phenomenon causes promotion of osteogenesis depending on the GST-RANKL dose, the number of doses, and the period of time elapsed after administration, which might results in an increase in the osteoblast surface area.
# [3] = system: 7-week-old male C57BL/6N mice; test: Evaluation of male mice; assay type: in vivo, mouse
# Protocol: GST-RANKL was intraperitoneally administered 3 times to groups of 7-week-old male C57BL/6N mice at 1 mg/kg every 24 hours. The femur and serum were collected from each mouse 1.5 hours after the 3rd administration and compared with those of the PBS administration group. Regarding bone metabolism markers, TRAP-5b, calcium (Ca), and alkaline phosphatase (ALP) in the serum were measured. Each femur was subjected to bone density measurement with pQCT and image analysis with micro CT.
# [4] = system: 12-week-old male and female C57BL/6N mice; test: GST-RANKL administration to 12-week-old mice; assay type: in vivo, mouse
# Protocol: GST-RANKL was intraperitoneally administered 3 times to 12-week-old male and female C57BL/6N mice at 1 mg/kg every 24 hours. The serum and femur were collected from each mouse 1.5 hours after the 3rd administration. The serum collected from each mouse was subjected to measurement of serum bone resorption markers (Ca and TRAP-5b) and an osteogenesis marker (ALP). Each femur was subjected to bone density measurement by dual energy X-ray absorptiometry (DEXA) and image analysis with micro CT.
# mice = test: Double-dose administration of GST-RANKL at 0.5, 1 and 2 mg/kg; assay type: in vivo, mouse; conditions: 2 mg/kg compared with 0.5 mg/kg and 1 mg/kg
# [5] = system: 7-week-old female ICR mice; test: Evaluation of mice of the other lineages (ICR); assay type: in vivo, mouse
# Protocol: GST-RANKL was intraperitoneally administered 3 times to groups of 7-week-old female ICR mice at 1 mg/kg every 24 hours. The femur and serum were collected from each mouse 1.5 hours after the 3rd administration and compared with those of the PBS administration group. Regarding bone metabolism markers, TRAP-5b, calcium (Ca), and alkaline phosphatase (ALP) in the serum were measured. Each femur was subjected to bone density measurement with pQCT and image analysis with micro CT.
# [6] = system: 8-week-old female C57BL/6N mice; test: Administration of GST-RANKL to mouse calvaria; assay type: in vivo; conditions: 3 days
# Protocol: GST-RANKL was administered to the calvaria of groups of 8-week-old female C57BL/6N mice for 3 days. The femur was collected from each mouse on day 5 day after the initiation of experimentation. The femur bone density was evaluated with pQCT. Experimentation was conducted with the use of the following three experimental groups: the experimental group 1 subjected to administration of GST-RANKL at 0.5 mg/kg twice daily; the experimental group 2 subjected to administration of GST-RANKL at 1 mg/kg once daily; and the PBS group serving as a control group for comparison and being subjected to PBS administration. Cancellous bone density measurement was carried out at points 0.6 mm, 0.8 mm, and 1.0 mm from the distal growth plate on the proximal side of the collected femur with pQCT.
# [7] = 12-week-old male, no significant difference
substance,measurement,setting,value
"GST-RANKL: fused protein of Glutathione S-transferase with human RANKL residues 140-317, expressed in Escherichia coli, 47.0 kDa",serum ALP concentration vs control,[1]; 1 mg/kg i.p. 3 times,no changes
same,serum Ca concentration vs control,[1]; 1 mg/kg i.p. 3 times,no changes
same,serum TRAP-5b concentration vs control,[1]; 1 mg/kg i.p. 3 times,no changes
same,femur bone density decrease,[1]; 3 mm from the distal growth plate,approximately 20%
same,osteoblast surface area,[2],no increase
same,"eroded surface area (ES/BS), fold as high as control",[2]; tibia,approximately 1.8 fold
same,"osteoclast number (N.Oc/B.Pm), fold as high as control",[2]; tibia,approximately 1.9 fold
same,"osteoclast surface area (Oc.S/BS), fold as high as control",[2]; tibia,approximately 1.8 fold
same,"osteoid thickness (O.Th), fold as high as control",[2]; tibia,approximately 1.2 fold
same,trabecular number (Tb.N) decrease vs control,[2]; tibia,approximately 20%
same,trabecular width (Tb.Th) decrease vs control,[2]; tibia,approximately 10%
same,unit bone mass (BV/TV) decrease vs control,[2]; tibia,approximately 30%
same,osteoclast number by TRAP staining,[2]; tibia sections,greater than that for the control group
same,serum ALP concentration,[3]; 1 mg/kg i.p. 3 times,no changes
same,serum TRAP-5b concentration increase,[3]; 1 mg/kg i.p. 3 times,approximately 65%
same,serum Ca concentration increase vs PBS group,"[3]; 1 mg/kg i.p. 3 times, no significant difference",7%
same,femur bone density decrease,[3]; 0.6 mm,approximately 6%
same,femur bone density decrease,[3]; 0.8 mm,approximately 10%
same,femur bone density decrease,[3]; 1.0 mm,approximately 15%
same,total bone density decrease (DEXA) vs control,[4]; 12-week-old female,6%
same,serum ALP concentration vs PBS group,"[4]; 12-week-old female, no significant difference",tended to increase
same,serum TRAP-5b concentration vs PBS group,"[4]; 12-week-old female, p<0.01",significantly increased
same,serum Ca concentration vs PBS group,"[4]; 12-week-old female, p<0.05",significantly increased
same,total bone density decrease (DEXA) vs control,[4]; 12-week-old male,8%
same,serum TRAP-5b concentration vs PBS group,"[4]; 12-week-old male, 1 mg/kg i.p. 3 times, p<0.05",significantly increased
same,serum ALP concentration vs PBS group,[4]; [7],tended to increase
same,serum Ca concentration vs PBS group,[4]; [7],tended to increase
same,bone mass decreasing effects,mice,promoted
same,serum ALP concentration,[5]; 1 mg/kg i.p. 3 times,no changes
same,serum Ca concentration vs control,[5]; 1 mg/kg i.p. 3 times,no changes
same,"serum TRAP-5b concentration, fold as high as PBS group",[5]; 1 mg/kg i.p. 3 times,1.8 fold
same,femur bone density decrease vs control,[5]; 1.0 mm,approximately 20%
same,femur bone density decrease vs control,[5]; 1.2 mm,approximately 20%
same,femur bone density decrease vs control,[5]; 1.4 mm,approximately 22%
same,femur cancellous bone density vs PBS group,"[6]; experimental group 1: 0.5 mg/kg twice daily to the calvarium, at the measurement points",bone density decrease was observed
same,femur cancellous bone density vs PBS group,"[6]; experimental group 2: 1 mg/kg once daily to the calvarium, at 0.8 mm and 1.0 mm",bone density decrease was observed
